Marks after values point to notes of the source that are not given here.
Legend:
[1] = system: human prostate cancer cells PC-3; assay: MTT growth inhibition, PC-3 cells; assay type: cell-based; conditions: 72 h after treatment, read-out: Drug concentration (IC50) at which 50% cancer cells survived
EZH2 = molecular target: T1, EZH2 (Homo sapiens, UniProt Q15910); assay: EZH2 enzyme activity in protein extracts of human tumor xenografts of treated mice (EZH2 Assay Kit); assay type: in vivo; conditions: tumors excised 6 h after medication, SAHA 25 mg/kg
T1 construct: the EZH2 enzyme was replaced with tumor protein extracts in each group; from tissue; host or cells: human tumour xenografts excised from treated nude mice
T1 sequence (Q15910 whole entry): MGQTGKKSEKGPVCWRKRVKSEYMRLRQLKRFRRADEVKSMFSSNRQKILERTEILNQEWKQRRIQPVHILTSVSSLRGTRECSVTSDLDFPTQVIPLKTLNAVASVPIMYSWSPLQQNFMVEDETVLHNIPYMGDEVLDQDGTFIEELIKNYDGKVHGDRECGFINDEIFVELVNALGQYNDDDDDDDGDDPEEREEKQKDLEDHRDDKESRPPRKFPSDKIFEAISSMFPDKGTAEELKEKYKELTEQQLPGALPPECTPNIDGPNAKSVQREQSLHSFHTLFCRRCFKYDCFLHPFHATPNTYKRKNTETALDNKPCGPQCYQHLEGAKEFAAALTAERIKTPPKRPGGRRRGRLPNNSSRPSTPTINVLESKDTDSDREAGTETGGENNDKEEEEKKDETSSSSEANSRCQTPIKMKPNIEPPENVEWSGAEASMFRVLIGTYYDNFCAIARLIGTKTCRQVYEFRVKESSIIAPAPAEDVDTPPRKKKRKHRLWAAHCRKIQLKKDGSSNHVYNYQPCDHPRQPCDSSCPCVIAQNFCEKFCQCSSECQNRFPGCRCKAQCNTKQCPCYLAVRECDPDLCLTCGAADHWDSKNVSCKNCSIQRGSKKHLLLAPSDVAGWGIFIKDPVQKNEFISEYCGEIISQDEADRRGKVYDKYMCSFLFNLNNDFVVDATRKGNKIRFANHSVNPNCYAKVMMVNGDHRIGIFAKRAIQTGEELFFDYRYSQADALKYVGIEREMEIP
T1 sequence (O75530 whole entry partner): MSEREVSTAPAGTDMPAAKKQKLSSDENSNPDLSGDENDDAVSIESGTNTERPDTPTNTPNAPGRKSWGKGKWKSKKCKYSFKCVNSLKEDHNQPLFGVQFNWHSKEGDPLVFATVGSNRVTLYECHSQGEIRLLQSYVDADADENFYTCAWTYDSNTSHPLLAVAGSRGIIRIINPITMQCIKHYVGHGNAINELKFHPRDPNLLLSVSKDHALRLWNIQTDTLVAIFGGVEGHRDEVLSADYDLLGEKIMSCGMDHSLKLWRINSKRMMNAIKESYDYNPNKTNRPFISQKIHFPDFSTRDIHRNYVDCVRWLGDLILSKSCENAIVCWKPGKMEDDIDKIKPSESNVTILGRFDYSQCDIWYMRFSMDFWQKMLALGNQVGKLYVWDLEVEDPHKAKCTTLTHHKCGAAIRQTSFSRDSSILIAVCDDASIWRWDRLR
T1 sequence (Q15022 whole entry partner): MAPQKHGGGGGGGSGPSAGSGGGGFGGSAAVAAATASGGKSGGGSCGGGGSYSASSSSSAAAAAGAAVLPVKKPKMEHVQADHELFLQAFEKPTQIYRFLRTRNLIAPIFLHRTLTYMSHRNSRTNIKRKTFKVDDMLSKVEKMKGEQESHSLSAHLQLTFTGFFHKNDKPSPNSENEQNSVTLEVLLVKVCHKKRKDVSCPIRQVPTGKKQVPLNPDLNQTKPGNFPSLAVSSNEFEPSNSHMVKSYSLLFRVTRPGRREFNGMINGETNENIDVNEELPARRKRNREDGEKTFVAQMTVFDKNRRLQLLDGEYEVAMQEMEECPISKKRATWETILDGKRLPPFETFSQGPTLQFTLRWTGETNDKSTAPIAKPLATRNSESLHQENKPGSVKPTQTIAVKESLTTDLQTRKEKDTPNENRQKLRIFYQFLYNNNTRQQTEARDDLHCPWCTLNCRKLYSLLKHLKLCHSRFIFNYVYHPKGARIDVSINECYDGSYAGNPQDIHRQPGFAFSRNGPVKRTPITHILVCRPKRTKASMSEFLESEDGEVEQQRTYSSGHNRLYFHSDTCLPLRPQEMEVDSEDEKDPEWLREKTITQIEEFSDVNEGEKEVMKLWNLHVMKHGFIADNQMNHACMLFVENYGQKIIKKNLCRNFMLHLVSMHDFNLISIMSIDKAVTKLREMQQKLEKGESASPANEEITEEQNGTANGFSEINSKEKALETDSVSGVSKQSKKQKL

E-cadherin = assay: Western Blotting, increase of E-cadherin level; assay type: cell-based; conditions: liver cancer cells, Lewis lung cancer cells and other cancer cell lines and tumor tissue protein lysates, 48 h treatment, read-out: Effective concentration to increase E-cadherin by 50%
From the text: (§1) Antibodies: primary antibodies of VEGFR, EGFR, c-Met, K-Ras, H-Ras, Akt, NF-κB, Cyclin D1, ER-alpha, Dvl-1, Dvl-2, Dvl-3, MMP-9, MMP2, β-catenin, Bcl-2, Bax, p53, p21, E-cadherin and Caspase3 protein, purchased from American Cell Signaling Technology Company and Santa Cruz Technology Company; and H3 acetylation, H4 acetylation and HDAC (HDAC3, HDAC4 and the like) Antibody Sample Kits, purchased from Cell Signaling Technology Company of the U.S.
(§2) (3) polyacrylamide gel electrophoresis (SDS-PAGE): an equal amount of protein lysate sample was used to separate protein, film transfer, and blocking, treated with appropriate primary antibodies and secondary antibodies in sequence, and the film was washed, then the color was developed with ECL kit, and a blot protein band was detected by exposure of an X-ray film; and a Gel-Pro Analyzer was used for quantitative analysis of gray degree, optical density value of the control group and the drug treatment group in various concentration were respectively compared with that of internal reference, the obtained ratios were respectively compared with the control group, and the protein expression level was semi-quantified.

[2] = system: human pancreatic cancer cells PANC-1; assay: MTT growth inhibition, PANC-1 cells; assay type: cell-based; conditions: 72 h after treatment, read-out: Drug concentration (IC50) at which 50% cancer cells survived
[3] = system: human lung cancer cells A549 xenograft; assay: In-vivo growth of A549 xenografts in nude mice; set-up: species or system BALB/c nude mice; conditions: Mus musculus, ip, vs DMSO solvent control, read-out: Curative effect (inhibition rate %) of tumor weight; for inhibition in vivo at 60 mg/kg: 60 mg/kg intraperitoneal once a day; for inhibition in vivo at 90 mg/kg: 90 mg/kg intraperitoneal once a day
Description: (§3) RPMI1640 and DMEM culture solutions: Hyclone Company; inactivated fetal bovine serum: Hyclone Company, preserved at −20° C.; trypsin: Amersco Company; and 0.4% trypan blue: Sigma Company;
(3) Observation of growth of tumors in nude mice: the activities (including food intake, traits of urine and stool, mental state and the like) of the nude mice and the tumor growth time and growth situation of the transplanted tumors were observed every day, the body weight and the size of the tumors were measured once every 2-3 days. The long diameter a and the short diameter b (mm) of each tumor were measured by a vernier caliper to calculate the volume, wherein the volume V=π1/2·ab^2 (mm^3);
(§4) (4) sacrifice of animals: the mice were anesthetized and photoed after treatment experiments; the nude mice were sacrificed by breaking neck, the tumor tissues were stripped under sterile conditions and the weight of the tumors was weighed; and the effects of the drugs on pathology and toxicity of the various organs and tissues were detected.

[4] = system: Lewis lung cancer (highly metastatic mouse lung cancer) cells; assay: Mouse Lewis lung cancer metastasis model; assay type: in vivo, C57/BL6J black mice; conditions: Lewis lung carcinoma, ip, LLC, vs DMSO solvent control, read-out: tumor lung metastasis inhibition rate % of mouse Lewis lung cancer; for inhibition in vivo at 60 mg/kg: 60 mg/kg intraperitoneal once a day; for inhibition in vivo at 90 mg/kg: 90 mg/kg intraperitoneal once a day
Description: as §3, §4

[5] = system: human lymphoma cells U937; assay: MTT growth inhibition, U937 cells; assay type: cell-based; conditions: Homo sapiens, U-937, 72 h after treatment, read-out: Drug concentration (IC50) at which 50% cancer cells survived
In short: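 At 48 h and 72 h after dosing, MTT was added for 4 h in serum-free DMEM, formazan was dissolved in DMSO and absorbance read at 570 nm. Relative survival was calculated against untreated cell control, and IC50 derived by regression from three repeat experiments.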

[6] = system: human pancreatic cancer cells BxPC3; assay: MTT growth inhibition, BxPc3 cells; assay type: cell-based; conditions: Homo sapiens, BXPC-3, 72 h after treatment, read-out: Drug concentration (IC50) at which 50% cancer cells survived
HDAC3 = HDAC3 enzyme activity in nuclear extracts of human tumor xenografts of treated mice; conditions: first value of the pair HDAC3 and HDAC4, SAHA 25 mg/kg
Description: For the detection of the effect of the drugs on enzyme activity of EZH2 and HDAC of in-vivo tumors, the tumors were separately excised after 6 h of medication, total proteins and nucleoproteins were extracted separately to detect and analyze the activity of the enzyme.
(2) 50 μl of diluted sample solution was added into each reaction well, the plate was sealed with a plate-sealing film and reacted at room temperature for 30 min;
(3) the plate-sealing film was carefully peeled off, the liquid was removed, dried, 150 μl of washing liquid was added into each well, stood for 30 s, then the liquid was removed, repeated twice, and dried;
(4) 2 μl of HDAC enzyme or tumor tissue nuclear extracts was respectively uniformly mixed with 28 μl of diluted sample solution, added into the wells, the plate was sealed with the plate-sealing film and reacted at 37° C. for 60 min;
(5) the plate was washed for three times, wherein the operation was the same as that in (3); and a diluted antibody capture working solution was added into each reaction well according to 50 μl/well and reacted on a shaking bed at room temperature for 60 min;
(6) the plate was washed for four times, wherein the operation was the same as that in (3);
(7) a diluted antibody detection working solution was added into each reaction well according to 50 μl/well and reacted at room temperature for 30 min;
(8) the plate was washed for five times, wherein the operation was the same as that in (3);
a color developing agent was added according to 100 μl/well, and performed dark development for 2-10 min;
(9) 50 μl of stop solution was added into each well for stopping the reaction when the color in the well with a standard product turned blue with medium intensity, the color immediately turned yellow from blue after the addition;
(10) the light absorbance (OD value) of each well was measured in sequence at the wavelength of 450 nm; wherein the measurement should be performed within 15 min after addition of the stop solution; and

Dvl-1 = assay: Western Blotting, Dvl-1 level; assay type: cell-based; conditions: human liver cancer cells, Lewis lung cancer cells and other cancer cell lines and tumor tissues, read-out: Effective concentration (IC50) for inhibition of Dvl-1
From the text: as §1, §2

Row | SMILES | IC50 [1] [µM] | decrease of EZH2 enzyme activity/inhibition rate (EZH2; A549 tumor grown in vivo) | decrease of EZH2 enzyme activity/inhibition rate (EZH2; MCF7 tumor grown in vivo) | decrease of EZH2 enzyme activity/inhibition rate (EZH2; MDA-MB231 tumor grown in vivo) | decrease of EZH2 enzyme activity/inhibition rate (EZH2; SMMC7721 tumor grown in vivo) | EC50 (E-cadherin) [µM] | IC50 [2] [µM] | inhibition in vivo at 60 mg/kg [3] [%] | inhibition in vivo at 90 mg/kg [3] [%] | inhibition in vivo at 60 mg/kg [4] [%] | inhibition in vivo at 90 mg/kg [4] [%] | IC50 [5] [µM] | IC50 [6] [µM] | decrease of HDAC3 enzyme activity/inhibition rate (HDAC3; A549 tumor grown in vivo) [%* and] | decrease of HDAC3 enzyme activity/inhibition rate (HDAC3; MCF7 tumor grown in vivo) [%* and] | decrease of HDAC3 enzyme activity/inhibition rate (HDAC3; MDA-MB231 tumor grown in vivo) [%* and] | decrease of HDAC3 enzyme activity/inhibition rate (HDAC3; SMMC7721 tumor grown in vivo) [%* and] | IC50 (Dvl-1) [µM]
1 | CCNC(=O)CCC(NC(=O)c1cc2cc(F)ccc2oc1=O)C(=O)OCC (stereo in doubt) [Compound Ie, (R)-2-(6-F-2-oxo-2H-benzopyran-3-carboxamido)-5-ethylamino-5-oxo-pentanoic acid ethyl ester] | 127 | 58%*(A549)- | 62%*(MCF7) | 59%*(MDA-MB231) | 56%*(SMMC7721); | < 65 | 72 | 55.5 | 61.5 | 61.6 | 70.8 | 126 | 260 | 70 | 65 | 60 | 63 | < 150
2 | CCNC(=O)CC[C@@H](NC(=O)c1cc2cc(Cl)cc(Cl)c2oc1=O)C(=O)OCC [Compound Ig, (R)-2-(6,8-dichloro-2-oxo-2H-benzopyran-3-carboxamido)-5-ethylamino-5-oxo-pentanoic ethyl ester] | 45 | 57%*(A549)- | 65%*(MCF7) | 61%*(MDA-MB231) | 58%*(SMMC7721); | < 70 | 71 | 56.6 | 66.6 | 75.5 | 79.9 | 38 | 119 | 61 | 66 | 64 | 62 | < 125
3 | CCNC(=O)CC[C@@H](NC(=O)c1cc2cc(Br)ccc2oc1=O)C(=O)OCC [Compound Id, (R)-2-(6-Br-2-oxo-2H-benzopyran-3-carboxamido)-5-ethylamino-5-oxo-pentanoic acid ethyl ester] | 110 | 61%*(A549)- | 56%*(MCF7) | 58%*(MDA-MB231) | 59%*(SMMC7721); | < 65 | 55 | 63.6 | 69.6 | 69.2 | 82.5 | 124 | 116 | 71 | 60 | 63 | 65 | < 250

— patent US9518038B2, “Condensation product of theanine derivative and carboxylic acid coumarin derivative, its intermediate, preparation method and use thereof” (SHANDONG YINGDONG YINGHAO BIOTECHNOLOGY, INC., priority 2012, dated 2016)
